# Reference: the supplement of paper PMC10307832
# Legend:
# Test in all cases: relative viability (nuclei count vs DMSO), 5 days (fraction); higher = more cells survive
# [1] = compound: Cc1cc(Nc2cc(N3CCN(C)CC3)nc(Sc3ccc(NC(=O)C4CC4)cc3)n2)n[nH]1 [Tozasertib] + CCNC(=O)c1noc(-c2cc(C(C)C)c(O)cc2O)c1-c1ccc(CN2CCOCC2)cc1 [Luminespib] (partner 0.01 µM)
# Method in brief: (§1)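 A single step with final 0.05% Triton X-100, 1% formaldehyde and 1 ug/ml Hoechst fixed the cells and stained nuclei 5 days after treatment. Lung cancer cell lines in 1536-well plates had been treated by pin tool the day after seeding with one drug alone or a fixed anchor-drug dose plus five library-drug doses (not always all listed) in √10 steps, and nuclei were counted on 4× images. Relative viability is the ratio of nuclei in treated wells to nuclei in vehicle wells, taken as the median of duplicate plates.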
# [2] = compound: Cc1cc(Nc2cc(N3CCN(C)CC3)nc(Sc3ccc(NC(=O)C4CC4)cc3)n2)n[nH]1 [Tozasertib] + Cc1nc(NC(=O)N2CCC[C@H]2C(N)=O)sc1-c1ccnc(C(C)(C)C(F)(F)F)c1 [Alpelisib] (partner 2 µM)
# Method in brief: as §1
# [3] = compound: Cc1cc(Nc2cc(N3CCN(C)CC3)nc(Sc3ccc(NC(=O)C4CC4)cc3)n2)n[nH]1 [Tozasertib] + NC(=O)Nc1cc(-c2cccc(F)c2)sc1C(=O)N[C@H]1CCCNC1 [AZD7762] (partner 0.2 µM)
# Method in brief: as §1
# [4] = compound: Cc1cc(Nc2cc(N3CCN(C)CC3)nc(Sc3ccc(NC(=O)C4CC4)cc3)n2)n[nH]1 [Tozasertib] + Nc1nc2[nH]cc(CCc3ccc(C(=O)N[C@@H](CCC(=O)O)C(=O)O)cc3)c2c(=O)[nH]1 [Pemetrexed] (partner 0.2 µM)
# Method in brief: as §1
# [5] = compound: Cc1cc(Nc2cc(N3CCN(C)CC3)nc(Sc3ccc(NC(=O)C4CC4)cc3)n2)n[nH]1 [Tozasertib] + Nc1ncn([C@H]2C[C@H](O)[C@@H](CO)O2)c(=O)n1 [Decitabine] (partner 2 µM)
# Method in brief: as §1
Cell Line,relative viability ([1]; first compound 0.004 µM),relative viability ([1]; first compound 0.01265 µM),relative viability ([1]; first compound 0.04 µM),relative viability ([1]; first compound 0.1265 µM),relative viability ([2]; first compound 0.004 µM),relative viability ([2]; first compound 0.01265 µM),relative viability ([2]; first compound 0.04 µM),relative viability ([2]; first compound 0.1265 µM),relative viability ([3]; first compound 0.004 µM),relative viability ([3]; first compound 0.01265 µM),relative viability ([3]; first compound 0.04 µM),relative viability ([3]; first compound 0.1265 µM),relative viability ([4]; first compound 0.004 µM),relative viability ([4]; first compound 0.01265 µM),relative viability ([4]; first compound 0.04 µM),relative viability ([4]; first compound 0.1265 µM),relative viability ([5]; first compound 0.004 µM),relative viability ([5]; first compound 0.01265 µM),relative viability ([5]; first compound 0.04 µM),relative viability ([5]; first compound 0.1265 µM)
NCI-H1666,0.957,1.03,0.968,0.859,1.06,0.976,0.973,0.632,0.941,0.761,0.903,0.671,0.843,0.921,0.846,0.816,0.746,0.68,0.678,0.521
NCI-H1734,0.223,0.184,0.2,0.167,0.656,0.64,–,0.469,0.506,0.559,0.532,0.228,0.424,0.351,0.453,0.436,0.501,0.51,0.561,0.401
NCI-H1755,0.259,0.386,0.322,0.413,0.518,0.908,0.948,0.629,0.46,0.432,0.406,0.445,0.376,0.42,0.401,0.4,0.744,–,0.62,0.644
NCI-H1792,0.394,–,0.456,0.325,0.613,0.596,0.817,0.618,0.902,0.588,0.904,0.69,0.928,0.616,0.895,0.515,0.601,0.534,0.482,0.505
NCI-H1793,0.181,0.198,0.191,0.18,0.578,0.699,0.872,–,0.405,0.425,0.59,0.486,1.02,–,1.16,0.458,0.555,0.495,0.508,0.397
NCI-H1915,0.968,0.835,0.678,0.482,1.07,1.04,1.02,0.95,0.75,0.718,0.659,0.493,0.46,0.477,0.474,0.412,0.268,0.263,0.236,0.261
NCI-H1944,0.717,0.706,0.866,0.414,0.785,0.75,0.891,0.495,0.403,0.479,0.443,0.327,0.577,0.579,0.588,0.537,0.404,0.396,0.403,0.349
NCI-H1975,0.213,0.32,0.171,0.198,0.747,0.749,0.763,0.586,0.93,0.672,0.727,0.612,0.317,0.289,0.307,0.272,0.371,0.462,0.382,0.36
